From patent publication US10513521B2, “Compositions and methods for inhibiting BMP” (The Brigham and Women's Hospital, Inc., priority 2014, dated 2019)
Substitutions are numbered along the chain they refer to.

Tests used:
ALK2 [1] = biological target: T1, ALK2 (Homo sapiens, UniProt Q04771); test: TR-FRET enzymatic ALK kinase assay, ALK2
T1 sequence (Q04771 21-509): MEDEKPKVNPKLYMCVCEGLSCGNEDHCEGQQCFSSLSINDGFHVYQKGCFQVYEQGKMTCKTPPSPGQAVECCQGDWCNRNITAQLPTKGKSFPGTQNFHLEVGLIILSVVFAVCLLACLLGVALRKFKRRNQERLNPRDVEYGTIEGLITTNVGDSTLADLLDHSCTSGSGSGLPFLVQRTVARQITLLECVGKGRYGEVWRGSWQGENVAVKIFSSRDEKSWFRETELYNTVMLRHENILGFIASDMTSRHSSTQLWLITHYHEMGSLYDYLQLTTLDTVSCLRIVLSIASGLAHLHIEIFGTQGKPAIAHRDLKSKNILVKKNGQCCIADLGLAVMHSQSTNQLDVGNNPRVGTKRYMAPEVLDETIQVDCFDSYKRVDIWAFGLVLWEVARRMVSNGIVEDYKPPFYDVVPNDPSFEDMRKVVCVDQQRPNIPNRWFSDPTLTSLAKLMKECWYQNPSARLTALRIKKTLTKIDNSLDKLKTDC
Description: (§1) Briefly, the ALKs enzymatic assay was initiated by dispense 2.5 μl enzyme in 1× kinase reaction buffer. The assay plate was then added with compounds followed by incubation at room temperature for 10 minutes. Then 2.5 μl/well substrate was added.

ALK5 = biological target: T2, ALK5 (Homo sapiens, UniProt P36897); test: TR-FRET enzymatic ALK kinase assay, ALK5
T2 sequence (P36897 34-503): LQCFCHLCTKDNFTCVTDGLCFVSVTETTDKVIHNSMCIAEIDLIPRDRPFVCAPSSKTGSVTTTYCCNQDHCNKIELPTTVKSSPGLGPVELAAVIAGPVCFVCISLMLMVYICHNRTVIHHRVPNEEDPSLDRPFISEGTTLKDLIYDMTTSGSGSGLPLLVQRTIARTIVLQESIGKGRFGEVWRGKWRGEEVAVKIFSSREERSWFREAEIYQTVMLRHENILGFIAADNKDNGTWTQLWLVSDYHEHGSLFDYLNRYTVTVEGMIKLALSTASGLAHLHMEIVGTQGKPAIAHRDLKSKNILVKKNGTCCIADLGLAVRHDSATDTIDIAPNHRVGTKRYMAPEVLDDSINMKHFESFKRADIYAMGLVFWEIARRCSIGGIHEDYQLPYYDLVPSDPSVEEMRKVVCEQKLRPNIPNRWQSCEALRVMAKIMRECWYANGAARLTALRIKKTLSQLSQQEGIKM
Description: Six ALK kinase enzyme assays were developed for determination of compound activities on ALK1, ALK2, ALK3, ALK4, ALK5 and ALK6.
as §1

ALK1 = ALK1 (Homo sapiens, UniProt P37023); test: TR-FRET enzymatic ALK kinase assay, ALK1
Sequence of ALK1 (P37023 22-503): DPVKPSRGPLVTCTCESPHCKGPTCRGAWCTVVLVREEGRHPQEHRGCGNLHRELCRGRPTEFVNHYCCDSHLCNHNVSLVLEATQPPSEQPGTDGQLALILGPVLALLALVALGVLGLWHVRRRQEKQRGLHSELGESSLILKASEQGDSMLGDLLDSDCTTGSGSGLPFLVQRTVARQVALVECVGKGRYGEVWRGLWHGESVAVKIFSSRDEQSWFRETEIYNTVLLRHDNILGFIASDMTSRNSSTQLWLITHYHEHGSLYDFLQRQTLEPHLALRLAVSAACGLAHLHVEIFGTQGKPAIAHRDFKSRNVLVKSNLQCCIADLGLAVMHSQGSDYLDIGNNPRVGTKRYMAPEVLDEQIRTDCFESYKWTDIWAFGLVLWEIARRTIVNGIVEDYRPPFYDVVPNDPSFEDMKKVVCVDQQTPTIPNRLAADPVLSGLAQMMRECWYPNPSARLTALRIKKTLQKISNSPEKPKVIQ
Description: as §1

ALK2 [2] = biological target: T3, ALK2 (Mus musculus, UniProt P37172); test: HTRF pSMAD1 cell-based ALK2 assay (C2C12 cells, BMP6 as agonist); conditions: cell-based assay, BMP6; read-out: Cell IC50 BMP6
T3 construct: The C2C12 cell line was selected for the measurement of ALK2 activity using BMP6 as the agonist; host or cells: C2C12
T3 sequence (P37172 21-509): T1 sequence (Q04771 21-509) with M1V, P10Q, L121I, D162E, P310S
How it was run: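 Cells pre-starved, plated in 0.1% FBS medium for 4 h, compound added for 30 min, then stimulated 30 min with BMP9 (BAOEC) or BMP6 (C2C12). Phospho-SMAD1 measured by HTRF after overnight room-temperature detection incubation.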

[3] = Cell-based assay, TGFb1 (Cell IC50)
ALK4 = biological target: T4, ALK4 (Homo sapiens, UniProt P36896); test: TR-FRET enzymatic ALK kinase assay, ALK4
T4 sequence (P36896 24-505): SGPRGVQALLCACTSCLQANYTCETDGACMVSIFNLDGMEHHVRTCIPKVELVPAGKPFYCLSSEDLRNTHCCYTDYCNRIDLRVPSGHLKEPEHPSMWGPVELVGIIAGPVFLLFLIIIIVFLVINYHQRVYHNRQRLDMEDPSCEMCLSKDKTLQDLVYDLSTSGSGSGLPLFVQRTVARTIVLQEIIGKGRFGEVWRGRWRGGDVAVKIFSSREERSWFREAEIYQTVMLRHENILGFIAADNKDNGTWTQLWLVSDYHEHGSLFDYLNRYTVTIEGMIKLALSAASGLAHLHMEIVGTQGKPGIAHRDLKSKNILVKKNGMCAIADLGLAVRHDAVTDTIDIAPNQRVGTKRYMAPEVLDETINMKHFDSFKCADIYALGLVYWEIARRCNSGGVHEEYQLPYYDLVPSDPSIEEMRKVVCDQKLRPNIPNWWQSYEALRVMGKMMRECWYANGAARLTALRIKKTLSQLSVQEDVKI
Description: as §1

ALK3 = ALK3 (Homo sapiens, UniProt P36894); test: TR-FRET enzymatic ALK kinase assay, ALK3
Sequence of ALK3 (P36894 24-532): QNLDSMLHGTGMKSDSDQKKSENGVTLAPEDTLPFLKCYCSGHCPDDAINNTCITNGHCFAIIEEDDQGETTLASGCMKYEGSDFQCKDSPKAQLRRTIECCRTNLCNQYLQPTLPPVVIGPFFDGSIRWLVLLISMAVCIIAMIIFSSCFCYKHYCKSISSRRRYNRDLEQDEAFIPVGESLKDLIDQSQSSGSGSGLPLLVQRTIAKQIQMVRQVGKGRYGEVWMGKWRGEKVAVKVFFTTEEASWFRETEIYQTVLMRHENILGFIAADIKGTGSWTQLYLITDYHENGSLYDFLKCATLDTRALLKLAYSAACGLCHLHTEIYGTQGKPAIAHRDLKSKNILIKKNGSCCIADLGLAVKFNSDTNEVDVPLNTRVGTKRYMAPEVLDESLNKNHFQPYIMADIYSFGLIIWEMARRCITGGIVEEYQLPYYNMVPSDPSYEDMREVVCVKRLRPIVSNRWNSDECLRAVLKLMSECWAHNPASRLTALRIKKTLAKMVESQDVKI
Description: as §1

ALK6 = ALK6 (Homo sapiens, UniProt O00238); test: TR-FRET enzymatic ALK kinase assay, ALK6
Sequence of ALK6 (O00238 14-502): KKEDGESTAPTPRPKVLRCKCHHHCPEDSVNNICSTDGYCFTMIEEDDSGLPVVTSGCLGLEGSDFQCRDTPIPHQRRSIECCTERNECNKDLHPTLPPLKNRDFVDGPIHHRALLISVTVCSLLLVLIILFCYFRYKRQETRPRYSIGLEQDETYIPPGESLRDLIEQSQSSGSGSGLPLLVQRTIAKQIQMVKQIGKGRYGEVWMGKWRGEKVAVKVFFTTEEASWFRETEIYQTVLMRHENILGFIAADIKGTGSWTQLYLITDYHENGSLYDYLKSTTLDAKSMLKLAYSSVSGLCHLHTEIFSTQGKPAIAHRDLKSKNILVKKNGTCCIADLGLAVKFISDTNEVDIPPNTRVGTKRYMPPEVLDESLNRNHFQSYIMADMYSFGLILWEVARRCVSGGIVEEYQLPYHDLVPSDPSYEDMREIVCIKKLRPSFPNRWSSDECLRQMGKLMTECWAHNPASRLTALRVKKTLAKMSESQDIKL
Description: as §1

| SMILES | IC50 (ALK2 [1]) [µM] | IC50 (ALK5) [µM] | IC50 (ALK1) [µM] | IC50 (ALK2 [2]) [µM] | IC50 [3] [µM] | IC50 (ALK4) [µM] | IC50 (ALK3) [µM] | IC50 (ALK6) [µM] |
| --- | --- | --- | --- | --- | --- | --- | --- | --- |
| CCNS(=O)(=O)c1cccc(-c2cnn3cc(-c4ccc(N5[C@H](C)CNC[C@@H]5C)cc4)cnc23)c1 [Compound 77, 3-(6-(4-((2R,6S)-2,6-dimethylpiperazin-1-yl)phenyl)pyrazolo[1,5-a]pyrimidin-3-yl)-N-ethylbenzenesulfonamide] | 0.031 | > 10 | 0.11 | 0.028 | 0.423 | 4.3 | 2.1 | > 10 |
| NS(=O)(=O)c1cccc(-c2cnn3cc(-c4ccc(CCN5CCCCC5)cc4)cnc23)c1 [Compound 75, 3-(6-(4-(2-(piperidin-1-yl)ethyl)phenyl)pyrazolo[1,5-a]pyrimidin-3-yl)benzenesulfonamide] | 0.12 | > 10 | 0.57 | 0.467 | 13.5 | > 10 | 6.3 | > 10 |
| C[C@@H]1CNC[C@H](C)N1c1ccc(-c2cnc3c(-c4cccc5c(CO)cccc45)cnn3c2)cc1 [Compound 20, (5-(6-(4-((2R,6S)-2,6-dimethylpiperazin-1-yl)phenyl)pyrazolo[1,5-a]pyrimidin-3-yl)naphthalen-1-yl)methanol] | 0.016 | 21.7 | 0.022 | 0.014 | 1.55 | 3.96 | 0.24 | 3.71 |
| C[C@@H]1CNC[C@H](C)N1c1ccc(-c2cnc3c(-c4cc(C#N)cc(S(N)(=O)=O)c4)cnn3c2)cc1 [Compound 79, 3-cyano-5-(6-(4-((2R,6S)-2,6-dimethylpiperazin-1-yl)phenyl)pyrazolo[1,5-a]pyrimidin-3-yl)benzenesulfonamide] | 0.19 | > 10 | 1.2 | 8.93 | 10.1 | > 10 | > 10 | > 10 |
| NC(=O)c1ccc(-c2cnn3cc(-c4ccc(N5CCNCC5)cc4)cnc23)c2ccccc12 [Compound 2, 4-(6-(4-(piperazin-1-yl)phenyl)pyrazolo[1,5-a]pyrimidin-3-yl)-1-naphthamide] | 0.0045 | 56.6 | 0.018 | 0.028 | 0.331 | 11.2 | 0.147 | 2.07 |
| Fc1ccc(-c2cnn3cc(-c4ccc(CCN5CCCCC5)cc4)cnc23)cc1-c1nnn[nH]1 [Compound 78, 3-(4-fluoro-3-(1H-tetrazol-5-yl)phenyl)-6-(4-(2-(piperidin-1-yl)ethyl)phenyl)pyrazolo[1,5-a]pyrimidine] | 0.016 | > 10 | 0.15 | 70 | 100 | > 10 | 0.19 | 0.24 |
| NC(=O)c1cccc2c(-c3cnn4cc(-c5ccc(N6C[C@@H]7C[C@H]6CN7)cc5)cnc34)cccc12 [Compound 12, 5-(6-(4-((1S,4S)-2,5-diazabicyclo[2.2.1]heptan-2-yl)phenyl)pyrazolo[1,5-a]pyrimidin-3-yl)-1-naphthamide] | 0.0083 | 21.5 | 0.034 | 0.068 | 1.24 | 2.81 | 0.059 | 0.26 |

Further lines, results first:

| IC50 (ALK2 [1]) [µM] | IC50 (ALK5) [µM] | IC50 (ALK1) [µM] | IC50 (ALK2 [2]) [µM] | IC50 [3] [µM] | IC50 (ALK4) [µM] | IC50 (ALK3) [µM] | IC50 (ALK6) [µM] | SMILES |
| --- | --- | --- | --- | --- | --- | --- | --- | --- |
| 0.079 | > 10 | 0.52 | 1.5 | 0.064 | > 10 | 9.7 | > 10 | NS(=O)(=O)c1cccc(-c2cnn3cc(-c4ccc(C5CCNCC5)cc4)cnc23)c1 [Compound 95, 3-(6-(4-(piperidin-4-yl)phenyl)pyrazolo[1,5-a]pyrimidin-3-yl)benzenesulfonamide] |
| 0.014 | > 10 | 0.068 | 0.397 | 15 | 0.87 | > 10 | > 10 | c1cc(-c2cc[nH]n2)cc(-c2cnn3cc(-c4ccc(CCN5CCCCC5)cc4)cnc23)c1 [Compound 90, 3-(3-(1H-pyrazol-3-yl)phenyl)-6-(4-(2-(piperidin-1-yl)ethyl)phenyl)pyrazolo[1,5-a]pyrimidine] |
| 0.052 | > 10 | 0.22 | 0.179 | 59.2 | > 10 | 3.2 | > 10 | CN1CCC(c2ccc(-c3cnc4c(-c5cccc(S(C)(=O)=O)c5)cnn4c3)cc2)CC1 [Compound 91, 6-(4-(1-methylpiperidin-4-yl)phenyl)-3-(3-(methylsulfonyl)phenyl)pyrazolo[1,5-a]pyrimidine] |
| 0.039 | > 10 | 0.12 | 0.11 | 5.57 | 7.3 | 1.7 | > 10 | C[C@@H]1CNC[C@H](C)N1c1ccc(-c2cnc3c(-c4ccc(N)c(S(N)(=O)=O)c4)cnn3c2)cc1 [Compound 85, 2-amino-5-(6-(4-((2R,6S)-2,6-dimethylpiperazin-1-yl)phenyl)pyrazolo[1,5-a]pyrimidin-3-yl)benzenesulfonamide] |
| 0.053 | > 10 | 0.22 | 0.43 | 4.4 | > 10 | 6.1 | > 10 | CS(=O)(=O)c1cccc(-c2cnn3cc(-c4ccc(C5CCNCC5)cc4)cnc23)c1 [Compound 94, 3-(3-(methylsulfonyl)phenyl)-6-(4-(piperidin-4-yl)phenyl)pyrazolo[1,5-a]pyrimidine] |
| 0.028 | > 10 | 0.067 | 0.203 | 3.28 | 6 | 2.1 | > 10 | CC(C)(CN1CCCCC1)Oc1ccc(-c2cnc3c(-c4cccc(S(C)(=O)=O)c4)cnn3c2)cc1 [Compound 101, 6-(4-((2-methyl-1-(piperidin-1-yl)propan-2-yl)oxy)phenyl)-3-(3-(methylsulfonyl)phenyl)pyrazolo[1,5-a]pyrimidine] |
